Results as given in patent US20190343908A1, “Therapeutic Combination for the Treatment of Cancer” (Nerium Biotechnology Inc., priority 2011, published 2019).

What was measured:
[1] = test system: COLO699N lung cancer cell line; assay: Crystal Violet viability assay, COLO699N; assay type: cell-based, human; design: key to CVE Average: absorbance at 570 nm (crystal violet), background wavelength subtracted; details: for Average CVE 24 h / Average CVE 48 h / Average CVE 72 h: COLO699N Run 1; for ABSORBANCE: COLO699N, 0.1 μg/mL cisplatin
From the text: Three different viability assays were chosen to complement each other and yielded results dependent on concentration and cell line: the Methyl Tetrazolium dye assay, the Sulforhodamine B fluorescent dye assay, and the Crystal Violet dye assay.
(§1) The Sulforhodamine B and Crystal Violet assays provide information about protein and were used to complement the Methyl-Tetrazolium dye assay. […] It is used for the quantification of cellular proteins of cultured cells. The assay using Crystal Violet, a dye that binds electrostatically to proteins and stains DNA, provides a reliable, simple assay for measuring viability of cells.
(§2) The Methyl Tetrazolium, Sulforhodamine B, and Crystal Violet assays were used to assess cell viabilities. The incubation times were 24 hours, 48 hours, and 72 hours. The Nerium oleander extract Anvirzel™ (a hot water extract of oleander obtained from Salud Integral, Honduras) was tested in concentrations ranging from 0.01 ng/mL to 10 ng/mL.
(§3) Cells were detached by trypsinization (Trypsin-0.25% EDTA, Invitrogen, 25200-072) during the logarithmic phase of culture growth and plated in 96-well plates (18.000 cells/well) (Corning, Costar 359) in a final volume of 200 μl of medium per well. […] The absorbance was measured after 24 hours, 48 hours, and 72 hours of incubation.
For the Crystal Violet assay, the medium was removed from the 96-well plates, the plates rinsed with PBS (Sigma, P3813) and then the cells were […] by the addition of 10% formalin (MERCK, 1.04003.2500) for 20 minutes at RT. Formalin was removed and 0.25% aqueous crystal violet (Sigma, HT901), dissolved in water, was added for 10 minutes at RT. Unbound Crystal Violet was rinsed by washing with water and finally 33% acetic acid was added to dissolve the dye.
(§4) The optical density of each plate was measured on a μQuant spectrophotometer and the data were analyzed with Gen5 software (μQuant Biomolecular Spectrophotometer MQX200 and Gen5™ Microplate Data Collection & Analysis software, BioTek® Instruments. Inc, April 2008). Absorbance was measured at 570 nm for all assays and a second wavelength was measured in order to subtract noise. For the Methyl-Tetrazolium assay this second wavelength was 630 nm and for the Sulforhodamine B and Crystal Violet assays it was 690 nm.

[2] = test system: MDA-MB 231 (human breast cancer); assay: Crystal Violet viability assay, MDA-MB 231; assay type: cell-based; details: for CVE 24 h / CVE 48 h / CVE 72 h: Run 3 average
From the text: as §1, §2, §3
[…] Formalin was removed and 0.25% aqueous crystal violet (Sigma, HT901), dissolved in water, was added for 10 minutes at RT. Unbound Crystal Violet was rinsed by washing with water and finally 33% acetic acid was added to dissolve the dye.
as §4

SMILES: N.N.[Cl][Pt][Cl] [cisplatin]
- Average CVE 24 h ([1]; 0.1 μg/ml CDDP): 0.303
- Average CVE 48 h ([1]; 0.1 μg/ml CDDP, 48 h): 0.393
- Average CVE 72 h ([1]; 0.1 μg/ml CDDP, 72 h): 0.418
- Average CVE 24 h ([1]; 1 μg/ml CDDP): 0.222
- Average CVE 48 h ([1]; 1 μg/ml CDDP, 48 h): 0.136
- Average CVE 72 h ([1]; 1 μg/ml CDDP, 72 h): 0.313
- Average CVE 24 h ([1]; 10 μg/ml CDDP): 0.313
- Average CVE 48 h ([1]; 10 μg/ml CDDP, 48 h): 0.47
- Average CVE 72 h ([1]; 10 μg/ml CDDP, 72 h): 0.256
- Average CVE 24 h ([1]; 100 μg/ml CDDP): 0.223
- Average CVE 48 h ([1]; 100 μg/ml CDDP, 48 h): 0.189
- Average CVE 72 h ([1]; 100 μg/ml CDDP, 72 h): 0.172
- ABSORBANCE ([1]; 48 h): 0.801
- ABSORBANCE ([1]; 72 h): 1
- CVE Average ([1]; Run 2, 24 h, 0.1 μg/ml CDDP): 0.551
- CVE Average ([1]; Run 2, 24 h, 1 μg/ml CDDP): 0.232
- CVE Average ([1]; Run 2, 24 h, 10 μg/ml CDDP): 0.504
- CVE Average ([1]; Run 2, 24 h, 100 μg/ml CDDP): 0.266
- CVE Average ([1]; Run 2, 48 h, 0.1 μg/ml CDDP): 0.801
- CVE Average ([1]; Run 2, 48 h, 1 μg/ml CDDP): 0.311
- CVE Average ([1]; Run 2, 48 h, 10 μg/ml CDDP): 0.205
- CVE Average ([1]; Run 2, 48 h, 100 μg/ml CDDP): 0.287
- CVE Average ([1]; Run 2, 72 h, 0.1 μg/ml CDDP): 1
- CVE Average ([1]; Run 2, 72 h, 1 μg/ml CDDP): 0.337
- CVE Average ([1]; Run 2, 72 h, 10 μg/ml CDDP): 0.127
- CVE Average ([1]; Run 2, 72 h, 100 μg/ml CDDP): 0.268
- CVE Average ([1]; Run 3, 24 h, 0.1 μg/ml CDDP): 0.675
- CVE Average ([1]; Run 3, 24 h, 1 μg/ml CDDP): 0.194
- CVE Average ([1]; Run 3, 24 h, 10 μg/ml CDDP): 0.398
- CVE Average ([1]; Run 3, 24 h, 100 μg/ml CDDP): 0.224
- CVE Average ([1]; Run 3, 48 h, 0.1 μg/ml CDDP): 0.624
- CVE Average ([1]; Run 3, 48 h, 1 μg/ml CDDP): 0.815
- CVE Average ([1]; Run 3, 48 h, 10 μg/ml CDDP): 0.199
- CVE Average ([1]; Run 3, 48 h, 100 μg/ml CDDP): 0.185
- CVE Average ([1]; Run 3, 72 h, 0.1 μg/ml CDDP): 0.759
- CVE Average ([1]; Run 3, 72 h, 1 μg/ml CDDP): 0.295
- CVE Average ([1]; Run 3, 72 h, 10 μg/ml CDDP): 0.155
- CVE Average ([1]; Run 3, 72 h, 100 μg/ml CDDP): 0.393
- CVE 24 h Average ([2]; Run 1, 0.1 μg/ml CDDP): 0.161
- CVE 48 h Average ([2]; Run 1, 0.1 μg/ml CDDP): 0.939
- CVE 72 h Average ([2]; Run 1, 0.1 μg/ml CDDP): 0.768
- CVE 24 h Average ([2]; Run 1, 1 μg/ml CDDP): 0.124
- CVE 48 h Average ([2]; Run 1, 1 μg/ml CDDP): 0.549
- CVE 72 h Average ([2]; Run 1, 1 μg/ml CDDP): 0.375
- CVE 48 h Average ([2]; Run 1, 10 μg/ml CDDP): 0.586
- CVE 72 h Average ([2]; Run 1, 10 μg/ml CDDP): 0.416
- CVE 24 h Average ([2]; Run 1, 100 μg/ml CDDP): 0.098
- CVE 48 h Average ([2]; Run 1, 100 μg/ml CDDP): 0.504
- CVE 72 h Average ([2]; Run 1, 100 μg/ml CDDP): 0.538
- CVE 24 h Average ([2]; Run 2, 0.1 μg/ml CDDP): 0.118
- CVE 48 h Average ([2]; Run 2, 0.1 μg/ml CDDP): 0.305
- CVE 72 h Average ([2]; Run 2, 0.1 μg/ml CDDP): 0.485
- CVE 24 h Average ([2]; Run 2, 1 μg/ml CDDP): 0.042
- CVE 48 h Average ([2]; Run 2, 1 μg/ml CDDP): 0.047
- CVE 72 h Average ([2]; Run 2, 1 μg/ml CDDP): 0.036
- CVE 24 h Average ([2]; Run 2, 10 μg/ml CDDP): 0.125
- CVE 48 h Average ([2]; Run 2, 10 μg/ml CDDP): 0.27
- CVE 72 h Average ([2]; Run 2, 10 μg/ml CDDP): 0.301
- CVE 24 h Average ([2]; Run 2, 100 μg/ml CDDP): 0.074
- CVE 48 h Average ([2]; Run 2, 100 μg/ml CDDP): 0.062
- CVE 72 h Average ([2]; Run 2, 100 μg/ml CDDP): 0.11
- CVE 24 h ([2]; 0.1 μg/ml CDDP): 1.198
- CVE 48 h ([2]; 0.1 μg/ml CDDP): 1.239
- CVE 72 h ([2]; 0.1 μg/ml CDDP): 1.573
- CVE 24 h ([2]; 1 μg/ml CDDP): 0.528
- CVE 48 h ([2]; 1 μg/ml CDDP): 0.231
- CVE 72 h ([2]; 1 μg/ml CDDP): 0.144
- CVE 24 h ([2]; 10 μg/ml CDDP): 0.693
- CVE 48 h ([2]; 10 μg/ml CDDP): 0.79
- CVE 72 h ([2]; 10 μg/ml CDDP): 0.472
- CVE 24 h ([2]; 100 μg/ml CDDP): 0.168
- CVE 48 h ([2]; 100 μg/ml CDDP): 0.154
- CVE 72 h ([2]; 100 μg/ml CDDP): 0.089
